One compound from patent US4866058A, “Method for control of hyperlipidemia” (priority 1988, dated 1989) can be followed below.

Data set [1] is described as follows: LD50 value in mice as single injection IP. As to conditions: mouse, in vivo.
Data set [2] relates to Serum cholesterol and triglyceride levels. Briefly: Serum testing of normal rats. Type of data set: in vivo, Sprague-Dawley male rats. Conditions: 20 mg/kg per day orally. From the text:
(§1) A test solution of Compounds A, F, J, M, N and O were suspended in an aqueous solution of 1% CMC, homogenized and administered orally to six Sprague-Dawley male rats, which each weighted approximately 350 grams. Administration of the compounds was by an intubation needle. The rats were each fed with 20 milligrams of Compounds A, F, J, M, N and O per kilogram of body weight per day for 14 days. Similarly, six Sprague-Dawley male rats of approximately the same weight (that used for testing F weighed approximately 160 grams) were fed similar volumes of the same aqueous 1% CMC solution without the active agents, also orally, administered by intubation needle. In addition, as a control, a similar group of six male Sprague-Dawley rats were untreated.
On Days 7 and 14, blood was obtained from each of the rats of the three groups by tail vein bleeding. The blood obtained was separated by centrifugation for three minutes. Serum cholesterol and triglyceride levels were determined in accordance with the procedure of Example 6.

For data set [3], the system named is serum cholesterol and serum triglyceride levels. The data set is described as follows: Testing of hyperlipidemic mice (atherogenic diet). Type of data set: in vivo, CF1 male mice. As to conditions: hyperlipidemic CF1 mice, 20 mg/kg/d intraperitoneally, Day 12. On the procedure:
A group of six CF^1 male mice (about 25 g) were placed on a commercial diet (U.S. Biochemical Corporation Basal Atherogenic Test Diet) which produced a "hyperlipidemic" state. That is, the average serum cholesterol level in the group of treated mice was raised from 122 to 375 mg percent and triglyceride levels were raised from 137 to 367 mg/dL.

The test system is the same in data set [4]. The data set is described as follows: Testing of normal mice: hypolipidemic activity in CF1 mice. As to conditions: Mus musculus, ip. The data set is classed as in vivo, CF1 male mice. Here is the method: The following compounds were tested for their hypolpidemic activity in CF1 mice.
Compounds A-V as defined above, were suspended in an aqueous 1 percent carboxymethylcellulose (CMC) solution and homogenized. Each of the so prepared compounds were administered to a group of six CF1 male mice, each weighing approximately 25 grams, intraperitioneally for 16 days. Each of these compounds were provided in a dosage of 20 mg/kg/d ip. On Days 9 and 16 blood was obtained by tail vein bleeding. The blood serum so obtained was separated by centrifugation for three minutes. Serum cholesterol levels were determined by a modification of the Liebermann-Burchard reaction (Ness, Clin. Chim. Acta., Vol. 10, 229 [1964]). Serum triglyceride levels were determined on Day 16 by use of the Fisher, Hycel Triglyceride Test Kit.
In addition to the above-described treated mice, an untreated control group of six mice were similarly tested on Days 9 and 16 to determine their serum cholesterol and trigylceride blood levels. Based on the results obtained for the untreated control group, the percent control, based on serum cholesterol and serum triglyceride levels of the treated mice compared to the untreated mice, was obtained. Table 1 reports this percent control, including standard deviation, indicating the level of confidence of these numbers.

The subject of the next data set is serum lipoprotein. The data set is described as follows: Cholesterol content of serum lipoprotein of treated Sprague-Dawley rats. As to conditions: orally 14 days at 20 mg/kg/day. Type of data set: in vivo.
Excerpt: as §1
The cholesterol content of serum lipoprotein
of Sprague-Dawley Rats treated
orally for 14 days at 20 mg/kg/day

Like-named read-outs stand apart in the source and are kept apart here. Bounds are passed on as bounds.

For the compound `CCOC(=O)C1n2c(=O)n(-c3ccccc3)c(=O)n21` [M, 3-phenyl-6-ethoxycarbonyl-1,3,5-triazabicyclo[3.1.0]hexane-2,4-dione], in data set [1], the LD50 was more than 500 mg/kg. In data set [2] (Day 7), the “Serum Cholestrol, Day 7” value is 70% of Control and the “Serum Triglyceride, Day 7” value is 36% of Control. In addition, in data set [2] (Day 14), the “Serum Cholestrol, Day 14” value is 36% of Control and the “Serum Triglyceride, Day 14” value is reported as 54% of Control. Moreover, in data set [3], the “Serum Cholesterol” value was 46% of Control and the “Serum Triglyceride” value is given as 54% of Control. Besides, the response vs control in vivo at 20 mg/kg/day in data set [4] (216 h, read-out: Serum Cholesterol, Day 9) came to 62 ± 6%. Further, in data set [4] (384 h, read-out: Serum Cholesterol, Day 16), the response vs control in vivo at 20 mg/kg/day came to 57 ± 5%. The response vs control in vivo at 20 mg/kg/day in data set [4] (384 h, read-out: Serum Triglyceride, Day 16) came to 59 ± 6%. In the data set on serum lipoprotein, the HDL cholesterol is recorded as 340% of Control, the LDL cholesterol is recorded as 67% of Control and the VLDL cholesterol was 71% of Control.
